# Test results published in US10660911B2, “Proton-motive force stimulation to potentiate aminoglycoside antibiotics against persistent bacteria” (TRUSTEES OF BOSTON UNIVERSITY, priority 2011, dated 2020).
# “Also recorded” adds a separate entry of the source.
# Columns and labels:
# [1] = test system: E. coli persisters; assay: E. coli persister assay (survival by c.f.u. per ml); type: cell-based, Escherichia coli (K12 EMG2); conditions: for potentiation of gentamicin against E. coli persisters by metabolite / reduction of persister viability (killing by gentamicin induced by metabolite): metabolite plus 10 μg/mL gentamicin; for potentiation of gentamicin against E. coli persisters by metabolite / reduction of persister viability (killing by gentamicin induced by metabolite) / potentiation of gentamicin against ΔndhΔnuoI strain persisters: 2 h; for killing of E. coli persisters by antibiotic without metabolite: antibiotic alone, no carbon source; for killing of E. coli persisters by antibiotic in the presence of mannitol: antibiotic plus 10 mM mannitol; for reduction of persister viability (killing by gentamicin induced by metabolite): M9 minimal media; for potentiation of gentamicin against ΔndhΔnuoI strain persisters: ΔndhΔnuoI E. coli, gentamicin plus metabolite
# Protocol: (§1) For E. coli (K12 EMG2 strain) persister assays, as described herein, samples were grown to stationary phase in Luria-bertani (LB) broth. Cultures were then treated for 4 hours with 5 μg/mL ofloxacin. […] Samples were then washed with 10 mL 1× filtered PBS and re-suspended in M9 minimal media. Metabolites (Glucose, mannitol, fructose, and pyruvate) and aminoglycoside antibiotics (10 μg/mL gentamicin, 50 μg/mL streptomycin, and 30 μg/mL kanamycin) were added, and samples were incubated at 37° C., 300 RPM, and 80% humidity. Resuspension of samples in defined minimal media allowed precise and specific testing of the effect of different metabolites on persister viability, without the possible confounding factors that a more complex media would present. For S. aureus persister (ATCC 25923 strain) experiments, cells were grown at 37° C. and 300 RPM in LB broth to an OD600 of 0.3. Cells were then diluted 1:1000 in 25 mL LB and grown for 16 hours at 37° C. and 300 RPM in 250 mL flasks. Cultures were treated with carbon source and antibiotic. Previous work has shown that, approximately all, stationary phase S. aureus cells are persistent.
# At specified time points, 10 μL aliquots of samples were removed, serially diluted, and spot-plated onto LB agar plates to determine colony forming units/mL (CFU/mL). Only dilutions that yielded between 10-100 colonies were counted. Survival was determined by dividing a replicate's CFU/mL at each time point by the initial CFU/mL for the replicate.
# Given the dormancy of bacterial persisters and the known energy requirement for aminoglycoside activity^16, we tested whether metabolic stimulation could potentiate the efficacy of aminoglycosides against bacterial persisters. To test this, we screened metabolites for their ability to potentiate aminoglycosides against E. coli persisters. We selected carbon sources to maximize coverage of glycolysis, the pentose-phosphate pathway (PPP) and the Entner-Doudoroff pathway (EDP) (FIGS. 1A, 1B). Bacterial persisters were isolated (as described under “Methods”), re-suspended in minimal media supplemented with individual metabolites and then treated for 2 hours with the aminoglycoside gentamicin.
# The following concentrations of carbon sources were used in this study: 10 mM glucose, 10 mM mannitol, 10 mM fructose, 20 mM glycerol, 30 mM glycolate, 10 mM galactarate, 20 mM pyruvate, 10 mM gluconate, 12 mM arabinose and 12 mM ribose. 10 mM acetate was used as a supplement and 30 mM acetate was used as a potentiating metabolite in control experiments. Carbon sources were purchased from Sigma or Fisher. In E. coli persister assays, samples were re-suspended in M9 minimal media salts plus a carbon source. In all experiments using CCCP, samples were pre-treated for 5 min with the proton ionophore before antibiotic addition.
# For E. coli persister assays, samples were grown to stationary phase as described above. Cultures were then treated for 4 h with 5 μg ml^−1 ofloxacin in the above-stated growth conditions. […] Samples were then washed with 10 ml of 1× filtered PBS and re-suspended in M9 minimal media. Carbon sources and antibiotics were added and samples were incubated at 37° C. 300 r.p.m. and 80% humidity. Re-suspension of samples in defined minimal media allowed us to test the effects of different carbon sources on persister viability precisely and specifically, without the possible confounding factors that a more complex medium would present. For S. aureus persister experiments, cells were grown at 37° C. and 300 r.p.m. in LB broth to an OD600 of 0.3. Cells were then diluted 1:1,000 in 25 ml LB and grown for 16 h at 37° C. and 300 r.p.m. in 250 ml flasks before treatment with a carbon source and antibiotic. Previous work has shown that almost all stationary-phase S. aureus cells are persistent^25.
# At specified time points, 10-μl aliquots of samples were removed, serially diluted and spot-plated onto LB agar plates to determine colony-forming units per ml (c.f.u. ml^−1). […]
# [2] = test system: stationary-phase E. coli cells; type: cell-based, Escherichia coli
# Protocol: Given that aminoglycoside uptake is energy-dependent^16, we investigated whether the metabolic stimuli screened here could increase aminoglycoside uptake. We measured uptake by fluorescently labelling gentamicin with Texas red and analyzing cells by fluorescence-activated cell sorting (FACS). Cells were pre-incubated with metabolites for 30 min before a 5-min treatment with gentamicin-Texas red (FIG. 1D and FIG. 14).
# Gentamicin-Texas red was made as previously described^27. At 4° C., 1 mg of Texas red (Invitrogen) was dissolved in 50 μl of high-quality anhydrous N,N-dimethylformamide. The dissolved Texas red was added slowly to 2.3 ml of 10 mg ml^−1 gentamicin solution in 100 mM K2CO3 at 4° C.
# Uptake of gentamicin-Texas red induced by carbon sources in stationary-phase cells was determined by adding concentrated carbon sources (see section on media and growth conditions for concentrations) to stationary-phase cultures and incubating them for 30 min at 37° C., 300 r.p.m. and 80% humidity. Concentrated gentamicin-Texas red was then added to a final concentration of 10 μg ml^−1 and samples were incubated for 5 min. 100 μl of each sample was then washed with 1 ml of PBS and re-suspended in 1 ml of PBS. […] Samples were analysed on a BD FACS Aria II flow cytometer with the following settings: mCherry voltage, 650 V; FSC threshold, 1,000; recorded events, 100,000; gated-out mCherry events. <30.
# [3] = test system: uropathogenic E. coli biofilms; assay: Mouse chronic urinary tract infection assay; type: in vivo, mice (BALB/c); conditions: i.v. twice daily for 3 days; gentamicin 1 mg/kg, mannitol 1.5 g/kg
# Protocol: Female Charles River Balb/C mice (weighing 22-26 g) received surgical implantation in the urinary tract of 6 mm PESO catheter tubing that had been incubated in cultures of uropathogenic E. coli for 24 hours to form biofilms. Forty-eight hours after surgery, mice received no treatment or twice-daily, intravenous treatment with gentamicin (1 mg/Kg) or mannitol (1.5 g/Kg) and gentamicin (1 mg/Kg) for three days. Seven to eight mice were included in each group. Twenty-four hours after the last treatment, catheter tubing was extracted to determine biofilm viability and kidneys were removed to determine bacterial load.
# To determine the clinical relevance of metabolic potentiation of aminoglycosides in vivo, we tested the ability of gentamicin in combination with mannitol to treat chronic, biofilm-associated infection in a mouse model. Catheters colonized with uropathogenic E. coli biofilms were implanted in the urinary tracts of mice (FIG. 3D). Two days after surgery, mice received either no treatment or intravenous treatment with gentamicin or gentamicin and mannitol for 3 days, after which the catheters were removed and biofilm viability was determined. Gentamicin alone had no effect, whereas gentamicin in combination with mannitol reduced the viability of the catheter biofilms by nearly 1.5 orders of magnitude (FIG. 3D). […]
# [4] = test system: S. aureus persisters; assay: S. aureus persister assay; type: cell-based, Staphylococcus aureus (ATCC 25923)
# Protocol: as §1, with “Previous work has shown that, approximately all, stationary phase S. aureus cells are persistent.” left out
# At specified time points, 10-μl aliquots of samples were removed, serially diluted and spot-plated onto LB agar plates to determine colony-forming units per ml (c.f.u. ml^−1). Only dilutions that yielded 10-100 colonies were counted Survival was determined by dividing the c.f.u. ml^−1 of a sample at each time point by the initial c.f.u. ml^−1 for that sample.
compound,measurement,setting,value
O=C(O)[C@H](O)[C@@H](O)[C@H](O)[C@H](O)CO [gluconate],potentiation of gentamicin against E. coli persisters by metabolite,[1],low potentiation
O=C[C@H](O)[C@H](O)[C@H](O)CO [ribose],potentiation of gentamicin against E. coli persisters by metabolite,[1],low potentiation
[H]/N=C(/N)N[C@H]1[C@H](O)[C@@H](O)[C@H](O[C@@H]2O[C@@H](C)[C@](O)(C=O)[C@H]2O[C@@H]2O[C@@H](CO)[C@H](O)[C@@H](O)[C@@H]2NC)[C@@H](N/C(N)=N\[H])[C@@H]1O [streptomycin],killing of E. coli persisters by antibiotic without metabolite,[1],no appreciable killing
same,aminoglycoside activity against E. coli persisters with upper-glycolytic metabolites,"[1]; plus glucose, mannitol or fructose, 30 μg/mL kanamycin, 50 μg/mL streptomycin",greatly enabled
CC1(C)S[C@@H]2[C@H](NC(=O)[C@H](N)c3ccccc3)C(=O)N2[C@H]1C(=O)O [ampicillin],killing of E. coli persisters by antibiotic without metabolite,[1],"none of the bactericidal antibiotics used in this study (ofloxacin, ampicillin, and gentamicin) caused killing of cells; also recorded: neither the β-lactam ampicillin nor the quinolone ofloxacin showed appreciable killing"
same,killing of E. coli persisters by antibiotic in the presence of mannitol,[1],neither the β-lactam ampicillin nor the quinolone ofloxacin showed appreciable killing
O=C(O)CO [glycolate],uptake of Texas Red probe,"[2]; 30 mM glycolate, stationary phase E. coli",affects the uptake of Texas Red probe
gentamicin,killing of E. coli persisters by antibiotic without metabolite,[1],"none of the bactericidal antibiotics used in this study (ofloxacin, ampicillin, and gentamicin) caused killing of cells; also recorded: No killing"
same,killing of E. coli persisters by antibiotic in the presence of mannitol,[1],rapidly eliminated
same,reduction of viability of catheter biofilms,[3],no effect
"N#CC(C#N)=NNc1cccc(Cl)c1 [CCCP, carbonyl cyanide m-chlorophenyl hydrazone]",effect of CCCP on metabolite potentiation of gentamicin,"[1]; 20 μM CCCP pre-incubation, 10 μg/mL gentamicin plus carbon sources",abolish aminoglycoside potentiation by all of the carbon sources; also recorded: abolishes metabolite-enabled potentiation
same,effect of CCCP on metabolite-induced gentamicin-Texas red uptake,"[2]; 20 μM CCCP, 10 μg/mL Gent-TR, 30 min on carbon source",suppressed the metabolite-induced uptake of aminoglycoside
OC[C@@H](O)[C@@H](O)[C@H](O)[C@H](O)CO [mannitol],reduction of persister viability (killing by gentamicin induced by metabolite),[1],three orders of magnitude
same,potentiation of gentamicin against ΔndhΔnuoI strain persisters,[1],not potentiated
same,potentiation of gentamicin against S. aureus persisters by metabolite,[4],little potentiation
O=C[C@@H](O)[C@H](O)[C@H](O)CO [arabinose],potentiation of gentamicin against E. coli persisters by metabolite,[1],low potentiation
O=C(CO)[C@@H](O)[C@H](O)[C@H](O)CO [fructose],reduction of persister viability (killing by gentamicin induced by metabolite),[1],three orders of magnitude
same,potentiation of gentamicin against ΔndhΔnuoI strain persisters,[1],not potentiated
same,PMF dependence of fructose potentiation in S. aureus,"[4]; gentamicin and fructose, with or without CCCP, 4 h",requires PMF generation; also recorded: PMF-dependent killing
